# Source: paper PMC11873900, “Insights into the Activation Mechanism of HCA1, HCA2, and HCA3” (Journal of Medicinal Chemistry, 2025)
# Where two headings read alike, the source gives them in different places.
# Key:
# HCA1 [1] = details: cited from earlier work
# HCA1 [2] = biological target: T1, HCA1 (Homo sapiens, UniProt Q9BXC0); test: cAMP inhibition (CRE-luc reporter) assay, HCA1 wild type; type: cell-based; details: HEK293 cells, mean ± SEM (Table S2a,b)
# T1 construct: expressed in transfected cells; host or cells: HEK293
# T1 sequence (Q9BXC0 whole entry): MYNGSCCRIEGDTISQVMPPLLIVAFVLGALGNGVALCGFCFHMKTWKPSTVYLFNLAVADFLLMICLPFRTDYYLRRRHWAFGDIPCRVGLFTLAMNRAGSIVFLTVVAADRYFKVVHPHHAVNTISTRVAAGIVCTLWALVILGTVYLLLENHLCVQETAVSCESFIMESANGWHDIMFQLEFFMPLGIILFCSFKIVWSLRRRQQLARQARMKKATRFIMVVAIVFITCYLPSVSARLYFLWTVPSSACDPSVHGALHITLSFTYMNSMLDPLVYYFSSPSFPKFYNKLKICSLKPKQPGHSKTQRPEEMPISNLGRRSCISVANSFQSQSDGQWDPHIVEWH
# Experimental: (§1) Human embryonic kidney 293 (HEK293) cells were maintained in Dulbecco’s modified Eagle’s medium (DMEM) containing 10% fetal bovine serum (FBS) and antibiotics (100 U/mL penicillin and 100 μg/mL streptomycin) at 37 °C, 5% CO2. Cells (1 × 10^6 per well) were seeded on 6-well plates for 15 h and transiently transfected with a transfection cocktail containing 2 μg of plasmid DNA (1 μg of the target plasmid and 1 μg of pCRE-luc) and 6 μL of X-tremeGENE HP DNA transfection reagents dissolved in 200 μL of phenol red-free OPTI MEM. After 24 h incubation, the medium containing the transfection cocktail was replaced with a serum-supplemented normal culture medium, and cells were plated at a density of approximately 40000 cells/well in white opaque 96-well microplates for an additional 24 h. After 24 h, fresh medium with varied concentrations of ligands was added to the wells, and cells were incubated for 30 min at 37 °C, 5% CO2. Then, forsklin with a final concentration of 5 μM was added to each well for 6 h. Then, all of the medium was removed and 40 μL of Bright-Glo Luciferase Assay System reagent (Promega, U.K.) was added to each well. Luminance was measured in a luminometer (TECAN Spark, CH) after 10 min incubation.
# HCA1 R99A = biological target: T2, HCA1 R99A (Homo sapiens, UniProt Q9BXC0, R99A); test: cAMP reporter assay, HCA1 mutant R99A; type: cell-based; details: HCA1 R99A (Figure 2f)
# T2 construct: expressed in transfected cells; host or cells: HEK293
# T2 sequence (Q9BXC0 whole entry R99A): as the sequence (Q9BXC0 whole entry) above, with R99A counted along it
# Experimental: as §1
# HCA3(1–129)/HCA2(130-) = biological target: T3, HCA3(1–129)/HCA2(130-) (Homo sapiens, UniProt P49019, H253R/I178S/I317M/I346M/L167M/L168P/R187Q/T173G/V156I/V176L/W142R); test: IP1 accumulation assay, chimera HCA3(1–129)/HCA2(130-); type: cell-based; details: IP1 accumulation (Figure 3d)
# T3 construct: swap the amino acid segments 1–129 between HCA2 and HCA3; creating chimeras HCA2(1–129)/HCA3(130-) and HCA3(1–129)/HCA2(130-); expressed in transfected cells; host or cells: HEK293
# T3 sequence (P49019 with tags, fused parts or gaps with the stated changes): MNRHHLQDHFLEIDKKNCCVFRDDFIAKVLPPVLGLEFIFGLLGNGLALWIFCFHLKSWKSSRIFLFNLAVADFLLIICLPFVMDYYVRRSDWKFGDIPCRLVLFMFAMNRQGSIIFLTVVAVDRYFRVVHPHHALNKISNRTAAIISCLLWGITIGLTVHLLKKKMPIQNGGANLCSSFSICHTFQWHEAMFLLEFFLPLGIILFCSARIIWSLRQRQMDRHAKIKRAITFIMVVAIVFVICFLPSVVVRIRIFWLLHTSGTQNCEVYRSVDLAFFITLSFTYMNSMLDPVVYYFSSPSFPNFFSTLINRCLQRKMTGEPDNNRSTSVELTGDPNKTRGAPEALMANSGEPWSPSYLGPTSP
# [3] = biological target: T4, HCA2(1–129)/HCA3(130-) N86^2.63Y W91^ECL1S (Homo sapiens, UniProt Q8TDS4, G173T/I156V/L176V/M167L/M317I/M346I/N86Y/P168L/Q187R/R142W/R253H/S178I/W91S); test: IP1 accumulation assay, chimera HCA2(1–129)/HCA3(130-) with N86Y and W91S; type: cell-based; details: HCA2(1–129)/HCA3(130-) with N86Y and W91S (Figure 3d)
# T4 construct: swap the amino acid segments 1–129 between HCA2 and HCA3; creating chimeras HCA2(1–129)/HCA3(130-) and HCA3(1–129)/HCA2(130-); expressed in transfected cells; host or cells: HEK293
# T4 sequence (Q8TDS4 with tags, fused parts or gaps with the stated changes): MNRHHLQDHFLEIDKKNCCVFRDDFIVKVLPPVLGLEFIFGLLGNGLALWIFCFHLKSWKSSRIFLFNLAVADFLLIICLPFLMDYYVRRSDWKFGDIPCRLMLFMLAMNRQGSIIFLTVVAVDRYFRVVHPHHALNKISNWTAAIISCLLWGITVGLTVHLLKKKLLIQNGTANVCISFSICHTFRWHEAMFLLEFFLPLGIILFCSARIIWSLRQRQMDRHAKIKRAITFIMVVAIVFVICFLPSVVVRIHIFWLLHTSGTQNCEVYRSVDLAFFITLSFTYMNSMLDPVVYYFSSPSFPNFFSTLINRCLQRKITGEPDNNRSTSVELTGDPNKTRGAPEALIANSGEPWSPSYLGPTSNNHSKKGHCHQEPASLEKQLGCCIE
# [4] = biological target: T5, HCA3(1–129)/HCA2(130-) S178^45.51I (Homo sapiens, UniProt Q8TDS4, L107F/L83V/M103V/N86Y/S178I/V27A/W91S); test: IP1 accumulation assay, chimera HCA3(1–129)/HCA2(130-) with S178I; type: cell-based; details: HCA3(1–129)/HCA2(130-) with mutation S178I (Figure 3d)
# T5 construct: swap the amino acid segments 1–129 between HCA2 and HCA3; creating chimeras HCA2(1–129)/HCA3(130-) and HCA3(1–129)/HCA2(130-); expressed in transfected cells; host or cells: HEK293
# T5 sequence (Q8TDS4 whole entry V27A/L83V/N86Y/W91S/M103V/L107F/S178I): as the sequence (P49019 with tags, fused parts or gaps with the stated changes) above, with S178I counted along it
# HCA2(1–129)/HCA3(130-) = biological target: T6, HCA2(1–129)/HCA3(130-) (Homo sapiens, UniProt Q8TDS4, G173T/I156V/L176V/M167L/M317I/M346I/P168L/Q187R/R142W/R253H/S178I); test: IP1 accumulation assay, chimera HCA2(1–129)/HCA3(130-); type: cell-based; details: IP1 accumulation (Figure 3d)
# T6 construct: swap the amino acid segments 1–129 between HCA2 and HCA3; creating chimeras HCA2(1–129)/HCA3(130-) and HCA3(1–129)/HCA2(130-); expressed in transfected cells; host or cells: HEK293
# T6 sequence (Q8TDS4 with tags, fused parts or gaps with the stated changes): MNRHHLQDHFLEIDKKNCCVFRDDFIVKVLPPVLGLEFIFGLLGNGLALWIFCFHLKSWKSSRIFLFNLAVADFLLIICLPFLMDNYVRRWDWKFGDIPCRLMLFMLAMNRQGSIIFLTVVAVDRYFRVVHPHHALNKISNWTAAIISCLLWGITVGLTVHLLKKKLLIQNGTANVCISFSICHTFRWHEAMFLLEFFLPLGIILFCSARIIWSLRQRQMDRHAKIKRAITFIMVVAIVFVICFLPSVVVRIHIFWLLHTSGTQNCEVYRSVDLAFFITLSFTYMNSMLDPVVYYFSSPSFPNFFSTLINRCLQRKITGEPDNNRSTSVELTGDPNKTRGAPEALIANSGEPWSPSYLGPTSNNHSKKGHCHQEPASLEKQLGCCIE
# Experimental: The HCA1/HCA2/HCA3 plasmid was transfected into the HEK293 cells (Invitrogen) and cultured for 2 days. The HEK293 cells expressing HCA1/HCA2/HCA3 were washed by PBS and resuspended by the stimulation buffer from a Cisbio Bioassays’ IP-One Gq kit. […] After incubation at 37 °C for 90 min, 3μl Tb Cryptate Antibody and 3μl IP1 d2 Reagent were added to 384-well plates per well. […] The data was analyzed by GraphPad Prism 8.4.0 (GraphPad Software).
# HCA1 H261^7.36F = biological target: T7, HCA1 H261^7.36F (Homo sapiens, UniProt Q9BXC0, H261F); test: cAMP reporter assay, HCA1 mutant H261F; type: cell-based; details: HCA1 H261F (Figure 2f)
# T7 construct: expressed in transfected cells; host or cells: HEK293
# T7 sequence (Q9BXC0 whole entry H261F): as the sequence (Q9BXC0 whole entry) above, with H261F counted along it
# Experimental: as §1
# HCA1 E166^45.51I = biological target: T8, HCA1 E166^45.51I (Homo sapiens, UniProt Q9BXC0, E166I); test: cAMP reporter assay, HCA1 mutant E166I; type: cell-based; details: HCA1 E166I (Figure 2f)
# T8 construct: expressed in transfected cells; host or cells: HEK293
# T8 sequence (Q9BXC0 whole entry E166I): as the sequence (Q9BXC0 whole entry) above, with E166I counted along it
# Experimental: as §1
# HCA1 R240^6.55A = biological target: T9, HCA1 R240^6.55A (Homo sapiens, UniProt Q9BXC0, R240A); test: cAMP reporter assay, HCA1 mutant R240A; type: cell-based; details: HCA1 R240A versus wild type (Figure 2f)
# T9 construct: expressed in transfected cells; host or cells: HEK293
# T9 sequence (Q9BXC0 whole entry R240A): as the sequence (Q9BXC0 whole entry) above, with R240A counted along it
# Experimental: as §1
# HCA1 E166^45.51A = biological target: T10, HCA1 E166^45.51A (Homo sapiens, UniProt Q9BXC0, E166A); test: cAMP reporter assay, HCA1 mutant E166A; type: cell-based; details: HCA1 E166A (Figure 2f)
# T10 construct: expressed in transfected cells; host or cells: HEK293
# T10 sequence (Q9BXC0 whole entry E166A): as the sequence (Q9BXC0 whole entry) above, with E166A counted along it
# Experimental: as §1
compound,measurement,setting,value
"CCOc1cc(Cl)c(C(=O)NC(=O)Nc2nc3ccc(CN4CCN(C)CC4)cc3s2)cc1N1CCOCC1 [AZ2, 2-chloro-4-ethoxy-N-[[6-[(4-methylpiperazin-1-yl)methyl]-1,3-benzothiazol-2-yl]carbamoyl]-5-morpholino-benzamide]",EC50,HCA1 [1]; HCA1,0.07 to 0.18 µM
CC(O)C(=O)O (stereo not drawn) [lactate],pEC50,HCA1 [2],3.2 ± 0.3
same,potency at mutant,HCA1 R99A,complete loss of potency
same,EC50,"HCA1 [1]; HCA1, endogenous agonist",1000 to 5000 µM
"CCCCCC(O)CC(=O)O (stereo not drawn) [3-HO, 3-hydroxy-octanoic acid]",activation of chimera,HCA3(1–129)/HCA2(130-),capable of activating
same,activation of chimera,[3],did not facilitate activation
same,activation of chimera,[4],highest potency
same,activation of chimera,HCA2(1–129)/HCA3(130-),failed to activate
"O=C(O)c1cc(O)cc(O)c1 [3,5-DHBA, 3,5-dihydroxybenzoic acid]",efficacy compared with H261A,HCA1 H261^7.36F,marked decrease of efficacy
same,activation efficacy compared with the wild type,HCA1 E166^45.51I,halving of the activation efficacy
same,pEC50,HCA1 [2],3.7 ± 0.1
same,reduction of activation efficacy,HCA1 R240^6.55A,around 50%
same,receptor activation,HCA1 E166^45.51A,inactivity
same,potency at mutant,HCA1 R99A,complete loss of potency
3-hydroxybutyric acid [3-HBA],EC50,HCA1 [1]; HCA1,~184 µM
